The subject of series [1] is dog. The note with it: Subchronic oral toxicity in nonrodent, beagle, Feed, dose end: 90 day.
Series [2] relates to rat. As to conditions: Prenatal developmental toxicity study, wistar, Oral, Gavage/Intubation, dose end: 16 GD.
In series [3] the test system is dog. As to conditions: Chronic toxicity; beagle; Oral; Feed; dose end: 104 week; group: systemic; systemic / hematology / [other] / [other] + systemic / hematology / eosinophils / eosinophils + systemic / hematology / erythroblast / ….
The test system of series [4] is rat. The note with it: Multigenerational reproductive toxicity study, sprague dawley, Oral, Feed, dose end: 2 generation.
Series [5] concerns rat. The note with it: Prenatal developmental toxicity study, sprague dawley, Oral, Gavage/Intubation, dose end: 15 GD.
Series [6] concerns rat. The note with it: Subchronic oral toxicity in rodents, fischer, Feed, dose end: 13 week, group: systemic, systemic / clinical chemistry / thyroxine (t4) / thyroxine (t4), total + systemic / in life observation / body weight / body weight + ….
In series [7] the test system is rabbit. As to conditions: Prenatal developmental toxicity study, new zealand white, Oral, Gavage/Intubation, dose end: 19 GD.
Series [8] has as its system rat. As to conditions: Sub-acute repeat dose toxicity, other, Inhalation, Nose-Only, dose end: 14 day, group: systemic.
The test system of series [9] is rat. The note with it: Prenatal developmental toxicity study, other, Inhalation, Nose-Only, dose end: 16 GD.
Series [10] deals with mouse. The note with it: Prenatal developmental toxicity study, cd1, Oral, Gavage/Intubation, dose end: 15 GD.
Series [11] concerns rabbit. As to conditions: Prenatal developmental toxicity study; new zealand white; Inhalation; Whole-Body; dose end: 18 GD; group: maternal; systemic / in life observation / body weight / body weight gain.
Series [12] concerns rat. As to conditions: Prenatal developmental toxicity study; fischer; Inhalation; Whole-Body; dose end: 15 GD; group: maternal; systemic / in life observation / body weight / body weight + systemic / in life observation / body weight / body weight gain + systemic / in….
Series [13] concerns rat. As to conditions: Subchronic oral toxicity in rodents, fischer, Inhalation, Whole-Body, dose end: 13 week, group: systemic.
Series [14] deals with rabbit. The note with it: Prenatal developmental toxicity study, new zealand white, Oral, Gavage/Intubation, dose end: 19 GD. This is another data set of the same source.
The test system of series [15] is rat. As to conditions: Subchronic inhalation toxicity, sprague dawley, Nose-Only, dose end: 13 week, group: systemic.
Series [16] concerns rat. The note with it: Multigenerational reproductive toxicity study, wistar, Oral, Feed, dose end: 2 generation.
Series [17] has as its system rat. As to conditions: Subchronic dermal toxicity, sprague dawley, Topical, dose end: 90 day, group: systemic, systemic / in life observation / clinical signs / erythema + systemic / in life observation / clinical signs / scabbing + systemic / ….
For series [18], the system named is rat. As to conditions: Prenatal developmental toxicity study, sprague dawley, Oral, Gavage/Intubation, dose end: 15 GD. This is another data set of the same source.
The mark [19] stands for this setting: group: cholinesterase, cholinesterase / cholinesterase / cholinesterase / plasma cholinesterase (che) + cholinesterase / cholinesterase / cholinesterase / ….
The mark [20] stands for this setting: group: systemic, systemic / hematology / [other] / [other] + systemic / hematology / erythroblast / erythroblast + systemic / hematology / lymphocyte / ….
Setting [21] is: group: developmental, developmental / developmental malformation / bone / [other] + developmental / developmental malformation / bone / bipartite ossification + ….
The mark [22] stands for this setting: group: maternal, systemic / in life observation / body weight / body weight gain + systemic / in life observation / food consumption / food consumption.
Where [23] appears, read: group: offspring, systemic / in life observation / body weight / offspring (pup) weight.
Where [24] appears, read: group: parental, systemic / in life observation / body weight / body weight gain + systemic / in life observation / food consumption / food consumption + ….
Where [25] appears, read: group: developmental, developmental / developmental malformation / bone / full supernumerary + developmental / developmental malformation / bone / incomplete ….
Setting [26] is: group: maternal, systemic / hematology / erythrocyte (rbc) count differential / erythrocyte (rbc) + systemic / hematology / reticulocyte / reticulocyte + ….
Where [27] appears, read: group: developmental, developmental / developmental malformation / bone / fused + developmental / developmental malformation / kidney / hydronephrosis + ….
Setting [28] is: group: maternal, reproductive / reproductive performance / resorptions / resorptions + systemic / in life observation / body weight / body weight gain + ….
Setting [29] is: systemic / clinical chemistry / alanine aminotransferase (alt/sgpt) / alanine aminotransferase (alt/sgpt) + systemic / clinical chemistry / ….
[30] abbreviates: systemic / hematology / leukocyte (wbc) count differential / leukocyte (wbc) + systemic / in life observation / body weight / body weight + ….
Setting [31] is: group: developmental, developmental / developmental malformation / bone / incomplete ossification + developmental / developmental malformation / bone / short ….
Where [32] appears, read: group: maternal, reproductive / reproductive performance / resorptions / resorptions + systemic / in life observation / body weight / body weight + systemic….
The mark [33] stands for this setting: group: developmental, developmental / developmental malformation / bone / [other] + developmental / developmental malformation / bone / absent + developmental / ….
[34] abbreviates: group: developmental, systemic / in life observation / body weight / fetal weight.
The mark [35] stands for this setting: group: maternal, reproductive / reproductive performance / postimplantation loss / postimplantation loss + reproductive / reproductive performance / ….
Where [36] appears, read: systemic / in life observation / clinical signs / urogenital staining + systemic / organ weight / kidney / relative to body weight.
The mark [37] stands for this setting: group: maternal, reproductive / reproductive performance / aborted / aborted + systemic / in life observation / body weight / body weight + systemic / in ….
The mark [38] stands for this setting: systemic / in life observation / body weight / body weight + systemic / in life observation / clinical signs / [other] + systemic / in life ….
Setting [39] is: group: offspring, systemic / in life observation / body weight / offspring (pup) weight + systemic / organ weight / spleen / absolute + systemic / organ ….
Where [40] appears, read: group: parental, systemic / pathology microscopic / stomach / hyperkeratosis + systemic / pathology microscopic / stomach / hyperplasia + systemic / ….
[41] abbreviates: group: developmental, developmental / developmental malformation / kidney / dilatation + developmental / developmental malformation / ureter / distended.
The mark [42] stands for this setting: group: maternal, systemic / in life observation / body weight / body weight.

Molecules are shown by their SMILES.

`Cc1nc(N(C)C)nc(OC(=O)N(C)C)c1C` [Pirimicarb]: the LEL in [1] (setting [19]) stood at 10 mg/kg/day; in [1] (setting [20]), 4 mg/kg/day; in [2] (setting [21]), 75 mg/kg/day; in series [2] (setting [22]), 75 mg/kg/day; in [3] it was 4 mg/kg/day; in series [4] (setting [23]), 90.1 mg/kg/day. For the same compound, the LEL in series [4] (setting [24]) was found to be 81.8 mg/kg/day. The LOAEL in series [1] (setting [19]) worked out at 10 mg/kg/day; in series [1] (setting [20]) it was 4 mg/kg/day; in series [2] (setting [21]), 75 mg/kg/day; in [2] (setting [22]) it was 75 mg/kg/day; in series [3] it was 4 mg/kg/day; in [4] (setting [23]), 90.1 mg/kg/day. Further, the LOAEL in [4] (setting [24]) was determined as 81.8 mg/kg/day. Moreover, the NEL was found to be 4 mg/kg/day in series [1] (setting [19]); 1.8 mg/kg/day in series [1] (setting [20]); 25 mg/kg/day in series [2] (setting [21]); 25 mg/kg/day in series [2] (setting [22]); 1.8 mg/kg/day in series [3]; 23.2 mg/kg/day in series [4] (setting [23]). The NEL in series [4] (setting [24]) is 21.7 mg/kg/day. In addition, the NOAEL is 4 mg/kg/day in series [1] (setting [19]); 1.8 mg/kg/day in series [1] (setting [20]); 25 mg/kg/day in series [2] (setting [21]); 25 mg/kg/day in series [2] (setting [22]); 1.8 mg/kg/day in [3]; 23.2 mg/kg/day in series [4] (setting [23]). Moreover, in series [4] (setting [24]), the NOAEL came to 21.7 mg/kg/day.

In the case of `CCCCOCCOC(=O)COc1ccc(Cl)cc1Cl` [2,4-D-Butotyl], in [5] (setting [25]), the LEL stood at 185 mg/kg/day, the LOAEL came to 185 mg/kg/day, the NEL amounted to 75 mg/kg/day and the NOAEL worked out at 75 mg/kg/day. In series [5] (setting [26]), the LEL was 185 mg/kg/day, the lowest-observed-adverse-effect level (LOAEL) was 185 mg/kg/day, the NEL was determined as 75 mg/kg/day and the no-observed-adverse-effect level (NOAEL) came to 75 mg/kg/day. Besides, in series [6], the LEL was determined as 145 mg/kg/day, the LOAEL was 145 mg/kg/day, the NEL amounted to 22 mg/kg/day and the NOAEL amounted to 22 mg/kg/day.

Regarding `COCCOCCOC` [Bis(2-methoxyethyl) ether], the lowest observed adverse effect level (LOAEL) in series [7] (setting [27]) was above 175 mg/kg/day; in series [7] (setting [28]), above 175 mg/kg/day; in series [8] (setting [29]) it was above 1000 ppm; in series [9] (setting [31]) it was above 400 ppm; in series [9] (setting [32]), above 400 ppm; in [10] (setting [33]), above 500 mg/kg/day. In addition, the lowest-observed-adverse-effect level (LOAEL) in series [10] (setting [35]) was above 500 mg/kg/day. Further, the NEL in series [7] (setting [27]) was 25 mg/kg/day; in series [7] (setting [28]) it was 25 mg/kg/day; in [8] (setting [30]) it was below 100 ppm; in series [9] (setting [31]), below 25 ppm; in series [9] (setting [32]) it was 25 ppm; in series [10] (setting [33]) it was 62.5 mg/kg/day. Moreover, in series [10] (setting [35]), the NEL worked out at 125 mg/kg/day. For the same compound, the no observed adverse effect level (NOAEL) was at least 175 mg/kg/day in series [7] (setting [27]); at least 175 mg/kg/day in series [7] (setting [28]); at least 1000 ppm in [8] (setting [29]); at least 400 ppm in series [9] (setting [31]); at least 400 ppm in series [9] (setting [32]); at least 500 mg/kg/day in [10] (setting [33]). Moreover, the NOAEL in series [10] (setting [35]) was at least 500 mg/kg/day. Also, the LEL in series [7] (group: developmental, developmental / developmental malformation / limb / [other]) worked out at 50 mg/kg/day; in series [7] (group: maternal, systemic / in life observation / body weight / body weight gain), 50 mg/kg/day; in [8] (setting [30]) it was 100 ppm; in series [9] (setting [31]) it was 25 ppm; in series [9] (group: maternal, systemic / in life observation / food consumption / food consumption + systemic / organ weight / liver / absolute + systemic / organ weight…), 100 ppm; in series [10] (setting [34]), 125 mg/kg/day. The LEL in [10] (group: maternal, reproductive / reproductive performance / postimplantation loss / postimplantation loss + systemic / in life observation / body weight / …) came out at 250 mg/kg/day.

For `CCCCCCOCCO` [2-(Hexyloxy)ethanol], in [11], the LEL is 79.2 ppm, the lowest-observed-adverse-effect level (LOAEL) is above 79.2 ppm, the NEL was 41.1 ppm and the no observed adverse effect level (NOAEL) is at least 79.2 ppm. In series [12], the LEL was found to be 79.2 ppm, the lowest-observed-adverse-effect level (LOAEL) was above 79.2 ppm, the NEL amounted to 41.1 ppm and the NOAEL was at least 79.2 ppm. In series [13] (setting [29]), the LOAEL is above 71 ppm and the NOAEL is at least 71 ppm. Besides, in series [13] (setting [36]), the LEL was 20 ppm and the NEL was below 20 ppm.

Consider `CCCCCCCCn1sccc1=O` [Octhilinone], for which the LEL in series [14] (setting [34]) came out at 80 mg/kg/day; in [14] (setting [37]), 80 mg/kg/day; in series [15] (setting [38]), 0.73 ppm; in series [16] (group: offspring, systemic / organ weight / spleen / relative to body weight) it was 45 mg/kg/day; in series [16] (setting [40]), 96 mg/kg/day. The lowest-observed-adverse-effect level (LOAEL) in [14] (setting [34]) is 80 mg/kg/day; in series [14] (setting [37]), 80 mg/kg/day; in series [15] (setting [38]), 0.73 ppm; in series [16] (setting [39]), 111 mg/kg/day; in [16] (group: parental, systemic / pathology microscopic / stomach / hyperkeratosis + systemic / pathology microscopic / stomach / hyperplasia), 96 mg/kg/day. The NEL in series [14] (setting [34]) came out at 20 mg/kg/day; in series [14] (setting [37]), 20 mg/kg/day; in [15] (systemic / in life observation / clinical signs / respiration (rales) + systemic / pathology microscopic / nose / [other]), 0.0733 ppm; in series [16] (setting [39]) it was 14 mg/kg/day; in series [16] (setting [40]) it was 43 mg/kg/day. For the same compound, the NOAEL in series [14] (setting [34]) was 20 mg/kg/day; in [14] (setting [37]), 20 mg/kg/day; in series [15] (setting [38]) it was 0.0733 ppm; in series [16] (setting [39]), 45 mg/kg/day; in series [16] (setting [40]) it was 43 mg/kg/day.

For the compound `CCN1CN(CC)CN(CC)C1` [1,3,5-Triethylhexahydro-s-triazine], in series [17], the LEL worked out at 10 mg/kg/day, the lowest observed adverse effect level (LOAEL) was determined as 10 mg/kg/day, the NEL is below 10 mg/kg/day and the NOAEL is below 10 mg/kg/day. Also, in [18] (setting [41]), the LEL was found to be 150 mg/kg/day, the lowest observed adverse effect level (LOAEL) was 150 mg/kg/day, the NEL was 75 mg/kg/day and the NOAEL amounted to 75 mg/kg/day. In series [18] (setting [42]), this compound came in with an LEL of 150 mg/kg/day, an LOAEL of 150 mg/kg/day, an NEL of 75 mg/kg/day and a no-observed-adverse-effect level (NOAEL) of 75 mg/kg/day.

(Values after EPA's ToxRefDB 2.)
